Read-outs that look alike come from different tables or passages of the source.
Tests used:
[1] = tested on: M. adductor pollicis contractions; test: Vecuronium-induced block of M. adductor pollicis contractions (TOF stimulation) and effect of Org 25969 in anaesthetised Rhesus monkeys; type: in vivo, Rhesus monkey
Procedure: • T1: first twitch: amplitude of the first response to TOF stimulation, expressed as percentage of control T1 (%). • T4/T1 ratio: the ratio of T4 over T1 (within one TOF stimulus) expressed as decimals.
Female Rhesus monkeys were starved overnight and sedated with 10 mg·kg^−1 ketamine i.m., followed by i.v. injection of 25 mg·kg^−1 pentobarbitone sodium and subsequent infusion of 5-10 mg·kg^−1hr^−1. The animals were intubated and ventilated with a mixture of oxygen and nitrous oxide (2:3), using a ventilator. The expired CO2 level was measured using a capnograph. The tidal volume was adjusted to obtain a CO2 level of approximately 4.5%. Oxygen saturation was measured via a probe on the earlobe using a pulse oxymeter. Blood pressure was measured non-invasively with a cuff placed on the tail. The ECG was recorded and heart rate was measured. Rectal temperature was measured and body temperature was kept at 37-38° C. using a heating blanket. The right hand and right arm of the animal were fixed to a frame using surgical tape. The thumb was connected to a force transducer. A pre-load of 200-500 mN was applied. Two needle electrode were placed near the N. ulnaris and the nerve was stimulated with train-of-four pulses (pulse duration: 2 ms, train-frequency: 0.07 Hz). At the end of the experiment, the animals were allowed to recover from anesthesia. Appropriate recovery care was given to all animals. Two groups of monkeys were used to assess the reversal effects of Org 25969 against the neuromuscular blocking agents rocuronium (Esmeron®/Zemuron®) and vecuronium (Norcuron®). In the first group, animals initially received an intravenous bolus injection of a 1×ED90 dose of rocuronium bromide to induce neuromuscular block, followed by spontaneous recovery of the twitches. After complete recovery of the twitches, each group received a second and larger 5×ED90 dose of rocuronium followed by spontaneous recovery in one subgroup, whereas the other subgroup received an intravenous bolus dose of 1150 nmol·kg^−1 Org 25969 as soon as all twitches had disappeared. In the vecuronium groups of animals, the same protocol was used, but rocuronium was replaced by vecuronium. Rocuronium bromide and vecuronium bromide were dissolved in a citric acid/phosphate/mannitol buffer (pH 4.0). Org 25969 was dissolved in saline.

[2] = tested on: rocuronium-induced block; test: Reversal of rocuronium-induced block in several animal models; type: in vivo; settings: guinea pigs, cats and monkeys
[3] = Org 25969 with rocuronium; neutral pH and 25° C.; cited from earlier work
[4] = Org 25969 with rapacuronium; compared with rocuronium (about 15.10^6 M^−1); cited from earlier work
[5] = Org 25969 with vecuronium; cited from earlier work
[6] = Org 25969 with pancuronium; cited from earlier work
[7] = tested on: neuromuscular block in a patient; settings: cited from earlier work; for Time to >80% block: value (range)
[8] = 5× ED90 vecuronium + 1150 nmol · kg^−1 Org 25969 i.v.
[9] = 5× ED90 vecuronium in the subgroup given 1150 nmol · kg^−1 Org 25969 once all twitches had disappeared
[10] = rocuronium 0.45 mg.kg−1, n = 50
[11] = rocuronium 0.6 mg.kg−1, n = 142

Compound: O=C(O)CCSC[C@H]1O[C@@H]2O[C@H]3[C@H](O)[C@@H](O)[C@@H](O[C@H]4[C@H](O)[C@@H](O)[C@@H](O[C@H]5[C@H](O)[C@@H](O)[C@@H](O[C@H]6[C@H](O)[C@@H](O)[C@@H](O[C@H]7[C@H](O)[C@@H](O)[C@@H](O[C@H]8[C@H](O)[C@@H](O)[C@@H](O[C@H]9[C@H](O)[C@@H](O)[C@@H](O[C@H]1[C@H](O)[C@H]2O)O[C@@H]9CSCCC(=O)O)O[C@@H]8CSCCC(=O)O)O[C@@H]7CSCCC(=O)O)O[C@@H]6CSCCC(=O)O)O[C@@H]5CSCCC(=O)O)O[C@@H]4CSCCC(=O)O)O[C@@H]3CSCCC(=O)O [Org 25969, 6-per-deoxy-6-per-(2-carboxyethyl)thio-γ-cyclodextrin]
- effect on recovery from vecuronium-induced block (in words) ([1]; 1150 nmol·kg^−1 Org 25969 i.v. after 5×ED90 vecuronium): initial improvement of the time to 25% and 50% recovery values, but the recovery slowed down
- 0.50-0.90 TOF ratio interval [1, 8]: 24.2 ± 3.9 min
- 25-75% recovery index [1, 8]: 16.1 ± 3.7 min
- time to 25% recovery of T1 [1, 8]: 9.7 ± 1.9 min
- time to 90% recovery of T1 [1, 8]: 35.8 ± 7.1 min
- time to TOF ratio 0.90 [1, 8]: 48.6 ± 8.3 min
- block [1, 9]: 100.0 ± 0.0%
- onset time [1, 9]: 1.0 ± 0.2 min
- reversal of rocuronium-induced block [2]: rapidly reverse rocuronium-induced block
- association constant Ka [3]: about 15.10^6 M^−1
- affinity (association constant) [4]: about the same
- affinity (association constant) [5]: about 9.10^6 M^−1
- affinity (association constant) [6]: about 2.6.10^6 M^−1

Compound: C=CC[N+]1([C@H]2C[C@H]3[C@@H]4CC[C@H]5C[C@H](O)[C@@H](N6CCOCC6)C[C@]5(C)[C@H]4CC[C@]3(C)[C@H]2OC(C)=O)CCCC1 [rocuronium, rocuronium bromide]
- ED95 ([7]; neuromuscular block, clinical use): 0.30 mg/kg
- Clinical duration (time until return to 25% of control T1) [7, 10]: 22 min
- Time to maximum block [7, 10]: 3.0 min
- Time to >80% block [7, 10]: 1.3 (0.8-6.2) min
- Clinical duration (time until return to 25% of control T1) [7, 11]: 31 min
- Time to maximum block [7, 11]: 1.8 min
- Time to >80% block [7, 11]: 1.0 (0.4-6.0) min
- Clinical duration (time until return to 25% of control T1) ([7]; rocuronium 0.9 mg.kg−1, n = 20): 58 min
- Time to maximum block ([7]; rocuronium 0.9 mg.kg−1, n = 20): 1.4 min
- Time to >80% block ([7]; rocuronium 0.9 mg.kg−1, n = 20): 1.1 (0.3-3.8) min
- Clinical duration (time until return to 25% of control T1) ([7]; rocuronium 1.2 mg.kg−1, n = 18): 67 min
- Time to maximum block ([7]; rocuronium 1.2 mg.kg−1, n = 18): 1.0 min
- Time to >80% block ([7]; rocuronium 1.2 mg.kg−1, n = 18): 0.7 (0.4-1.7) min

Source: patent US20050153932A1, “Controlled muscle relaxation” (priority 2003, published 2005)
